According to US20140335396A1, “Microporous Membrane” (ASAHI KASEI E-MATERIALS CORPORATION, priority 2011, published 2014):

Test: Solubility in water of the surfactant
Assay type: physicochemical
Details: water at 25° C.
Protocol: As long as the above-described surfactant adhered to a base membrane includes at least a surfactant (A) soluble in water and a surfactant (B) insoluble in water, the above-described surfactant adhered to a base membrane may also include another surfactant (i.e., a surfactant having a solubility in water of 0.1 g based on 100 g of water to 5 g based on 100 g of water.)
(7) Solubility in Water (g Per 100 g of Water)
Aliquots, each of which is 0.01 g of a surfactant, were added one by one to 100 g of water at 25° C. while stirring. The total amount of the surfactant added (g) when the solution changed from clear to opaque was taken as the degree of the solubility in water

| Compound | Solubility in water |
| --- | --- |
| CCCCCCCC/C=C/CCCCCCCC1=NCCN1CCO [oleyl imidazoline] | ≤ 0.1 g per 100 g of water |
| polyoxyethylene alkyl ether | ≥ 5 g per 100 g of water |
